Test results: patent publication US9573969B2, “Compounds and compositions as kinase inhibitors” (NOVARTIS AG, priority 2014, dated 2017)
Converted amounts (≈) assume the structure as drawn. Where two headings read alike, the source gives them in different places.

Legend:
[1] = high throughput solubility assay; type: physicochemical; conditions: for solubility: buffer solution, thermodynamic from solid
Method: Solubility of the compounds of the invention was assessed in a high throughput solubility assay: compounds were received as 10 mM DMSO solutions. The DMSO stock solution was then transferred into a microtiter plate. The DMSO solvent was dried with a solvent evaporator (GeneVac). After the addition of buffer solution (pH 6.8, pH 4.0 or FaSSIF), the plate was sealed and shaken for 16-24 hours at room temperature. The plate was centrifuged for phase separation and the supernatant quantified by a RapidFire 365 High-throughput MS System (Agilant) coupled with a mass spectrometer (Sciex), using a calibration curve constructed with the same DMSO stock solution. Solubility results (μM) are obtained in triplicate.

C-Raf = biological target: T1, C-Raf (Homo sapiens, UniProt P04049, Y340E/Y341E); experiment: In Vitro Raf Activity Determination (Alpha Screen, phosphorylation of kinase dead MEK1); type: biochemical
T1 construct: His tag (implied by nickel chromatography) and/or StrepII tag; made in house; host or cells: Sf9 insect cells (baculovirus) for CRAF and h14-3-3 zeta; E. coli for MEK1
Text: CRAF cDNA was subcloned as full length protein, with Y340E and Y341E activating mutations, into a baculovirus expression vector for Sf9 insect cell expression. h14-3-3 zeta cDNA was subcloned into a baculovirus expression vector for SF9 insect cell expression. Sf9 cells co-expressing both proteins were lysed and subjected to immobilized nickel chromatography and eluted with Imidazole. A second column (StrepII binding column) was used and eluted with desthiobiotin. Protein Tags were removed using Prescission enzyme and the protein was further purified using a flowthrough step to remove tags.
C-Raf TR refers to a truncated C-Raf protein, a Δ1-324 deletion mutant. C-Raf FL refers to the full-length C-Raf protein.
Full length MEK1 with an inactivating K97R ATP binding site mutation is utilized as a RAF substrate. The MEK1 cDNA was subcloned with an N-terminal (his)6 tag into a vector for E. Coli expression. The MEK1 substrate was purified from E. Coli lysate by nickel affinity chromatography followed by anion exchange. The final MEK1 preparation was biotinylated (Pierce EZ-Link Sulfo-NHS-LC-Biotin) and concentrated.
Assay Materials: Assay buffer is 50 mM Tris, pH 7.5, 15 mM MgCl2, 0.01% Bovine Serum Albumin (BSA) and 1 mM dithiothreitol (DTT); Stop buffer is 60 mM ethylenediaminetetraacetic acid (EDTA) and 0.01% Tween® 20; b-Raf (V600E), active; biotinylated Mek, kinase dead; Alpha Screen detection kit (available from PerkinElmer™ #6760617R); Anti phospho-MEK1/2 (available from Cell Signaling Technology, Inc. #9121); 384 well low volume assay plates (White Greiner® plates).
Assay conditions: b-Raf (V600E) approximately 4 pM; c-Raf approximately 4 nM; biotinylated Mek, kinase dead approximately 10 nM; ATP 10 μM for BRAF (V600E) and 1 μM for CRAF; Pre-incubation time with compounds 60 minutes at room temperature; Reaction time 1 or 3 hours at room temperature.
Assay protocol: Raf and biotinylated Mek (kinase dead) were combined at 2× final concentrations in assay buffer (50 mM Tris, pH 7.5, 15 mM MgCl2, 0.01% BSA and 1 mM DTT) and dispensed […] per well in assay plates (Greiner white 384 well assay plates #781207) containing […] of 40× of a Raf kinase inhibitor test compound diluted in 100% DMSO. The plate was incubated for 60 minutes at room temperature. The Raf kinase activity reaction was started by the addition of […] per well of 2×ATP diluted in assay buffer. After 3 hours (b-Raf(V600E)) or 1 hour (c-Raf). The reactions were stopped and the phosphorylated product was measured using a rabbit anti-p-MEK (Cell Signaling, #9121) antibody and the Alpha Screen IgG (ProteinA) detection Kit (PerkinElmer #6760617R), by the addition of […] to the well of a mixture of the antibody (1:2000 dilution) and detection beads (1:2000 dilution of both beads) in Stop/bead buffer (25 mM EDTA, 50 mM Tris, pH 7.5, 0.01% Tween20). The additions were carried out under dark conditions to protect the detection beads from light. A lid was placed on top of the plate and incubated for 1 hour at room temperature, after which the luminescence was read on a PerkinElmer Envision instrument. The concentration of each compound for 50% inhibition (IC50) was calculated by non-linear regression using XL Fit data analysis software.

[2] = phosphate Example itself, buffer (pH 6.8, pH 4.0 or FaSSIF) not given, 16-24 hours at room temperature
[3] = c-Raf approximately 4 nM, ATP 1 μM, pre-incubation 60 minutes, reaction 1 hour at room temperature, read-out: C-Raf

T1 sequence (P04049 whole entry Y340E/Y341E): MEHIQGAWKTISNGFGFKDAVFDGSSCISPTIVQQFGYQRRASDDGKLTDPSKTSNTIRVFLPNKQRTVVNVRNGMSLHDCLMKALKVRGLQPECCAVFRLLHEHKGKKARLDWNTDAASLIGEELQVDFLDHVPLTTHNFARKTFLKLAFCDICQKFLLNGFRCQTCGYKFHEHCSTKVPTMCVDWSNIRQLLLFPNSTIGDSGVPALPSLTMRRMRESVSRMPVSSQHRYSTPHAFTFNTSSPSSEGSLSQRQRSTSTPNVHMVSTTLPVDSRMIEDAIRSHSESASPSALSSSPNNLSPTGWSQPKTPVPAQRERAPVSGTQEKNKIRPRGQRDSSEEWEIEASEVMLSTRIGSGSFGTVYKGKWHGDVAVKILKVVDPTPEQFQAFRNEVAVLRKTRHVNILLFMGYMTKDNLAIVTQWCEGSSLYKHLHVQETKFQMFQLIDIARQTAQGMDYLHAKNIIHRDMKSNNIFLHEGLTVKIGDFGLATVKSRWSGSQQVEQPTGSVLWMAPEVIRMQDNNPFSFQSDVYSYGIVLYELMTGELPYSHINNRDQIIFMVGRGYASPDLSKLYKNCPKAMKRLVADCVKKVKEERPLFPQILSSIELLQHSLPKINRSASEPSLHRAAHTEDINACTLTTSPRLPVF
T1 sequence (P63104 whole entry partner): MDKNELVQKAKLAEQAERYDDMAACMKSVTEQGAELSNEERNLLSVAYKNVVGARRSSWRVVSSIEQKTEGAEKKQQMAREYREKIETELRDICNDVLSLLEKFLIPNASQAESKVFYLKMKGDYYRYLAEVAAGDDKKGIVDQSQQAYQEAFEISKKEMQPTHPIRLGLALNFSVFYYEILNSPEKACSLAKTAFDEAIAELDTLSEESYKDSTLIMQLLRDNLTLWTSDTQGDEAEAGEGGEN

Compound | solubility ([1]; buffer not stated) | solubility [1, 2] | IC50 (C-Raf; [3]) | improvement of solubility compared with the corresponding non-phosphate molecule ([1]; 874 μM versus 18 μM) | IC50 (C-Raf; read-out: inhibitory efficacy for C-Raf)
Cc1ccc(NC(=O)c2ccnc(C(F)(F)F)c2)cc1-c1cc(OCCO)nc(N2CCOCC2)c1 [N-(3-(2-(2-hydroxyethoxy)-6-morpholinopyridin-4-yl)-4-methylphenyl)-2-(trifluoromethyl)isonicotinamide, reference compound] | 18 µM (≈ 9.04 µg/mL) | – | – | – | –
Cc1ccc(NC(=O)c2cccc(C(F)(F)F)c2)cc1-c1cc(OCCOP(=O)(O)O)nc(N2CCOC[C@H]2C)c1 [Example 2, (R)-2-((4-(2-methyl-5-(3-(trifluoromethyl)benzamido)phenyl)-6-(3-methylmorpholino)pyridin-2-yl)oxy)ethyl dihydrogen phosphate] | – | < 1000 µM | 6 nM | – | –
Cc1ccc(NC(=O)c2cccc(C(F)(F)F)c2)cc1-c1cnc(OCCOP(=O)(O)O)c(N2CCOCC2)c1 [Example 16, 2-((5-(2-methyl-5-(3-(trifluoromethyl)benzamido)phenyl)-3-morpholinopyridin-2-yl)oxy)ethyl dihydrogen phosphate] | – | < 1000 µM | 1 nM | – | –
Cc1ccc(NC(=O)c2ccnc(C(C)(C)F)c2)cc1-c1cc(OCCOP(=O)(O)O)nc(N2CCOC[C@H]2C)c1 [Example 11, (R)-2-((4-(5-(2-(2-fluoropropan-2-yl)isonicotinamido)-2-methylphenyl)-6-(3-methylmorpholino)pyridin-2-yl)oxy)ethyl dihydrogen phosphate] | – | < 1000 µM | 2 nM | – | –
Cc1ccc(NC(=O)c2ccnc(C(F)(F)F)c2)cc1-c1cc(OCCOP(=O)(O)O)nc(N2CCOCC2)c1 [Example 1, 2-((4-(2-methyl-5-(2-(trifluoromethyl)isonicotinamido)phenyl)-6-morpholinopyridin-2-yl)oxy)ethyl dihydrogen phosphate] | 874 µM | – | – | greater than 48 fold | 0.1 nM
Cc1ccc(NC(=O)c2ccnc(C(C)(F)F)c2)cc1-c1cc(OCCOP(=O)(O)O)nc(N2CCOCC2)c1 [Example 10, 2-((4-(5-(2-(1,1-difluoroethyl)isonicotin amido)-2-methylphenyl)-6-morpholinopyridin-2-yl)oxy)ethyl dihydrogen phosphate] | – | 635 µM | 0.3 nM | – | –
Cc1ccc(NC(=O)c2ccnc(C(C)(F)F)c2)cc1-c1cc(OCCOP(=O)(O)O)nc(N2CCOC[C@H]2C)c1 [Example 6, (R)-2-((4-(5-(2-(1,1-difluoroethyl)isonicotin amido)-2-methylphenyl)-6-(3-methylmorpholino)pyridin-2-yl)oxy)ethyl dihydrogen phosphate] | – | 675 µM | 0.3 nM | – | –
Cc1ccc(NC(=O)c2ccnc(C(C)(C)F)c2)cc1-c1cc(OCCOP(=O)(O)O)nc(N2CCOCC2)c1 [Example 9, 2-((4-(5-(2-(2-fluoropropan-2-yl)isonicotinamido)-2-methylphenyl)-6-morpholinopyridin-2-yl)oxy)ethyl dihydrogen phosphate] | – | 841 µM | 0.5 nM | – | –
Cc1ccc(NC(=O)c2ccnc(C(F)(F)F)c2)cc1-c1cc(OCCOP(=O)(O)O)nc(N2CCOC[C@H]2C)c1 [Example 12, (R)-2-((4-(2-methyl-5-(2-(trifluoromethyl)-isonicotinamido)phenyl)-6-(3-methyl-morpholino)pyridin-2-yl)oxy)ethyl dihydrogen phosphate] | – | 939 µM | 2 nM | – | –
Cc1ccc(NC(=O)c2ccnc(C(C)(C)F)c2)cc1-c1cnc(OCCOP(=O)(O)O)c(N2CCOCC2)c1 [Example 15, 2-((5-(5-(2-(2-fluoropropan-2-yl)isonicotinamido)-2-methylphenyl)-3-morpholinopyridin-2-yl)oxy)ethyl dihydrogen phosphate] | – | 936 µM | 0.4 nM | – | –
Cc1ncc(NC(=O)c2cccc(C(F)(F)F)c2)cc1-c1cc(OCCOP(=O)(O)O)nc(N2CCOC[C@H]2C)c1 [Example 4, (R)-2-((2-methyl-6′-(3-methylmorpholino)-5-(3-(trifluoromethyl)-benzamido)-[3,4′-bipyridin]-2′-yl)oxy)-ethyl dihydrogen phosphate] | – | 617 µM | 0.7 nM | – | –

Further lines, results first:

solubility ([1]; buffer not stated) | solubility [1, 2] | IC50 (C-Raf; [3]) | improvement of solubility compared with the corresponding non-phosphate molecule ([1]; 874 μM versus 18 μM) | IC50 (C-Raf; read-out: inhibitory efficacy for C-Raf) | Compound
– | 725 µM | 0.1 nM | – | – | Cc1ncc(NC(=O)c2cccc(C(F)(F)F)c2)cc1-c1cc(OCCOP(=O)(O)O)nc(N2CCOCC2)c1 [Example 5, 2-((2-methyl-6′-morpholino-5-(3-(trifluoromethyl)benz amido)-[3,4′-bipyridin]-2′-yl)oxy)ethyl dihydrogen phosphate]
– | 987 µM | 0.024 nM | – | – | Cc1ccc(NC(=O)c2cc(C(F)(F)F)ccn2)cc1-c1cc(OC[C@@H](O)COP(=O)(O)O)nc(N2CCOCC2)c1 [Example 3, (R)-2-hydroxy-3-((4-(2-methyl-5-(4-(trifluoromethyl)picolinamido)phenyl)-6-morpholinopyridin-2-yl)oxy)propyl dihydrogen phosphate]
– | – | 0.02 nM | – | – | Cc1ncc(NC(=O)c2cccc(C(F)(F)F)c2)cc1-c1cnc(OCCOP(=O)(O)O)c(N2CCOCC2)c1 [Example 18, 2-((2′-methyl-5-morpholino-5′-(3-(trifluoromethyl)benzamido)-[3,3′-bipyridin]-6-yl)oxy)ethyl dihydrogen phosphate]
– | 897 µM | 0.04 nM | – | – | Cc1ccc(NC(=O)c2ccnc(C(C)(F)F)c2)cc1-c1cnc(OCCOP(=O)(O)O)c(N2CCOCC2)c1 [Example 14, 2-((5-(5-(2-(1,1-difluoroethyl)isonicotin amido)-2-methylphenyl)-3-morpholinopyridin-2-yl)oxy)ethyl dihydrogen phosphate]
– | 253 µM | 0.02 nM | – | – | Cc1ccc(NC(=O)c2cc(C(F)(F)F)ccn2)cc1-c1cc(OCCOP(=O)(O)O)nc(N2CCOCC2)c1 [Example 17, 2-((4-(2-methyl-5-(4-(trifluoromethyl)picolin amido)phenyl)-6-morpholinopyridin-2-yl)oxy)ethyl dihydrogen phosphate]
– | 124 µM | 0.05 nM | – | – | Cc1ccc(NC(=O)c2cccc(C(F)(F)F)c2)cc1-c1cc(OCCOP(=O)(O)O)nc(N2CCOCC2)c1 [Example 7, 2-((4-(2-methyl-5-(3-(trifluoromethyl)benzamido)phenyl)-6-morpholinopyridin-2-yl)oxy)ethyl dihydrogen phosphate]
– | 792 µM | 0.03 nM | – | – | Cc1ccc(NC(=O)c2ccnc(C(F)(F)F)c2)cc1-c1cnc(OCCOP(=O)(O)O)c(N2CCOCC2)c1 [Example 13, 2-((5-(2-methyl-5-(2-(trifluoromethyl)isonicotinamido)phenyl)-3-morpholinopyridin-2-yl)oxy)ethyl dihydrogen phosphate]
